# Assay results from patent US8637043B2, “Compositions useful as ligands for the formyl peptide receptor like 1 receptor and methods of use thereof” (Chemocentryx, Inc., priority 2001, dated 2014).
# Values joined by “and” are separate entries in the source; they are usually repeats but may differ in a detail not shown here. Identical values can stand only once. Ends that are not written are not given here.
# Assays:
# dendritic cells = assay: Dendritic cell infiltration after intradermal injection in mice (anti-DEC-205 staining); assay type: in vivo; parameters: key to Dendritic cell infiltration Score / Infiltration Score: 0 = none, 1 = slight, 2 = mild, 3 = moderate, 4 = severe; settings: for Infiltration Score: BALB/c mice, various doses
# Source text: The following chemokines were obtained from R&D Systems (Minneapolis, Minn.): vMCK-2, mC10, and GM-CSF. The following peptides were synthesized at Phoenix Pharmaceuticals (San Carlos, Calif.): SHAAYtide (SEQ ID NO:6), several […] MODIFIED peptides of SHAAGtide variant (SEQ ID NO:) (i.e. cyclized using the MPR-Cys linked cyclization), control peptide (SEQ ID NO:33, […]Gin Pro Gly lie Lys Arg Arg Trp Leu Met), randomly conjugated to OVA in either a 1:1 or 1:4 ratio (by MBS coupling method), and conjugated to OVA at the C-terminus (C-term, made by the addition of a cysteine), and SHAAGtide variant (SEQ ID NO:3). In three separate experiments, chemokines or peptides (2 μg or 20 μg in PBS) were injected intradermally into BALB/c or C57BI/6 mice (Jackson Laboratory; Bar Harbor, Me.). In each experiment, one mouse received an injection of PBS only as a negative control. At various times after injection, the mice were euthanized, and the area around the injection site was excised and subjected to immunohistology. Frozen sections were stained with anti-DEC-205 antibody (Bio-Whittaker Molecular Applications; Rockland, Me.) that recognizes a dendritic cell-specific molecule (Kraal et al., 1986). A relative staining number on a scale of […] was assigned to each section (0, none; 1, slight; 2, mild; 3, moderate; 4, severe).
# human FPRL1 = target: T1, human FPRL1 (Homo sapiens, UniProt P25090); assay: Calcium flux in FPRL1-L1.2 transfectants; assay type: cell-based; settings: for Designation and FPRL1 Activity: qualitative rating high, moderate, low, see Example 9; for Notes: activity: qualitative rating, Table 6
# T1 construct: Full length cDNA encoding FPRL1 was cloned, using the polymerase chain reaction (PCR), from genomic DNA isolated from undifferentiated HL-60 cells; expressed in transfected cells; linearized FPRL1/pcDNA3.1, electroporation
# T1 sequence (P25090 1-351): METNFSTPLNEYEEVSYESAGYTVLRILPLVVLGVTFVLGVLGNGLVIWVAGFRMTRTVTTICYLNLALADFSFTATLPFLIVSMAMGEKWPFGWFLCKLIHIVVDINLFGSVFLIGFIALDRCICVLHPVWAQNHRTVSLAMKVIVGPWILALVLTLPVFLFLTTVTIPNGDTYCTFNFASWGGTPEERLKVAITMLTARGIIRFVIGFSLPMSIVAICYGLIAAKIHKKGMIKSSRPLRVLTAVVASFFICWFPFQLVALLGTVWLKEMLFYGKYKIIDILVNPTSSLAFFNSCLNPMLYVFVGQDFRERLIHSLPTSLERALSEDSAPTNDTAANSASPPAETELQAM
# Procedure: Ca^2+ mobilization responses were performed using the intracellular ratiometric fluorescent dye, lndo-1. Cells were loaded with Indo-1/AM (3 μM; Molecular Probes, Eugene, Oreg.) in culture medium (45 min, 20° C., 10^7 cells/ml). After dye loading, cells were washed once with 10 ml PBS) and resuspended at 10^6 cell/ml in HBSS containing 1% FBS. Cytosolic [Ca^2+] release was determined using excitation at 350 nm using a Photon Technology International fluorimeter (excitation at 350 nm, ratioed dual emission at 400 and 490 nm).
# The functional activities of CKβ8-1 (25-116) were investigated in human FPRL1-L1.2 transfectants and in native L1.2 cells. Stable expression of formyl peptide-like receptor 1 (FPRL1) in L.1.2 cell was obtained as follows. Full length cDNA encoding FPRL1 was cloned, using the polymerase chain reaction (PCR), from genomic DNA isolated from undifferentiated HL-60 cells. […] Twenty micrograms of the FPRL1/pcDNA3.1 construct were linearized by digestion with Bsm1 (New England Biolabs, Beverly, Mass.) and used to transfect the murine B cell line L1.2 as follows. Twenty five million cells were washed twice and resuspended in 0.8 ml of PBS. The cells were incubated for 10 min at room temperature with the linearized FPRL/pcDNA3.1 construct DNA and transferred to a 0.4-cm cuvette, and a single electroporation pulse was applied at 250 V, 960 μF. Electroporated cells were incubated for 10 min at room temperature and transferred to culture at 37° C. in RPMI supplemented with 10% FCS. Geneticin (G418) was added to a final concentration of 800 μg/ml 48 h posttransfection and the cells plated into 96-well plates at 25,000 cells/well. After 2-3 weeks under drug selection, stable geneticin-resistant FPLR1 expressing cells were assessed for their ability to mobilize Ca^++ in response to SHAAGtide or CKbeta 8-1 at concentrations of 1 to 1000 nM.
# A calcium flux test was performed on these transfectants using the method described in Example 1.
# Stable expression of human FPRL1 in L1.2 cells was obtained as in Example 6. Calcium flux tests were conducted on the transfectants using the method described in Example 1. Chemokines (CKβ8(1-99), CKβ8(25-99), CKβ8-1(1-116) and CKβ8-1(25-116), were prepared as in Example 1. W peptides 1 and 2 were obtained as in Example 6. In addition, and the following SHAAGtide sequences and truncated variants (prepared as in Example 8) were tested:
# All ligands were added in a dose response manner and the peak calcium flux response determined.
# OVA-specific IgG = assay: Adjuvant activity, anti-OVA antibodies in mice (Example 17); assay type: in vivo, BALB/c mice; settings: 10 μg OVA
# Procedure: First, 96-well U-bottom plastic dishes were coated overnight with 1 μg ovalbumin (OVA) in 100 μl PBS per well. The next day, the dishes were rinsed with PBS, blocked with PBS containing 5% fetal bovine serum (FBS), and rinsed with PBS again. Plasma samples from experimental animals (see below) were diluted 10^2- to 10^5-fold and added to the dishes for 2 hours, after which the dishes were again rinsed with PBS. The dishes were then incubated with biotinylated goat anti-monkey IgG detection antibodies, then rinsed with PBS and incubated with streptavidin-linked horseradish peroxidase (SA-HRP). After a final rinsing with PBS, the HRP substrate 2,2′-Azinobis [3-ethylbenzothiazoline-6-sulfonic acid]-diammonium salt was added. Color development was measured with an ELISA plate reader at 405 nm, and optical density (OD) units were converted to arbitrary “antibody units,” where a unit is defined as the inverse of the plasma dilution that produces 50% of the maximum response from a standard curve obtained by serial dilution of an ascites collected from OVA-injected mice and containing OVA-specific antibodies.
# The experiment described in Example 16 was repeated, except the formulations were administered to BALB/c mice with 10 μg (Table 20) or 500 μg (Table 21) of OVA with in 100 μl. IFA was not used.
# BALB/c mice were given OVA with or without SHAAYtide (SEQ ID NO:6) either intraperitoneally on days 0 and 21 (Table 20), or sub-cutaneously on days 0 and 14 (Table 21). Blood samples were collected at the indicated time points. The results, reported in antibody units, are given in Tables 20 and 21, showing IgG levels.
# [1] = intraperitoneally on days 0 and 21, 0 day
substance,measurement,setting,value
GM-CSF,Infiltration Score,dendritic cells; 6 hours,2 and 1
same,Infiltration Score,dendritic cells; 30 hours,1
same,infiltration of DEC-205-labeled cells,"dendritic cells; summary of Tables 15, 16 and 17",excellent infiltration
MLWRRKIGPQMTLSH [SEQ ID NO: 3],Designation and FPRL1 Activity,human FPRL1,High
same,Notes: activity,human FPRL1,High
WRRKIGPQM [SEQ ID NO: 9],Designation and FPRL1 Activity,human FPRL1,Low
"SHAAYtide (SEQ ID NO: 6), cyclized: structurally modified peptide, cyclized using the MPR-Cys linked cyclization (MLWRRKIGPQMTLSHAAY; also: cyclized using MPR-Cys linked cyclization, MPR and Cys not in given letters)",Infiltration Score,dendritic cells; 30 hours,1 and 2
MLWRRKIGPQM [SEQ ID NO: 8],Designation and FPRL1 Activity,human FPRL1,moderate FPRL1 activity
same,Designation and FPRL1 Activity,human FPRL1; listed as CCXP8,Moderate
same,Notes: activity,human FPRL1,Moderate
2 μg SHAAYtide (SEQ ID NO: 6): 2 μg SHAAYtide without OVA (MLWRRKIGPQMTLSHAAY; SHAAGtide variant),"anti-OVA IgG, individual mouse",OVA-specific IgG; [1],7 antibody units (2×) and 14 antibody units and 24 antibody units
same,"anti-OVA IgG, average","OVA-specific IgG; intraperitoneally, 0 day",13 antibody units
same,"anti-OVA IgG, average","OVA-specific IgG; intraperitoneally, 10 d",68 antibody units
same,"anti-OVA IgG, increase from day 0","OVA-specific IgG; intraperitoneally, 10 d",55 antibody units
same,"anti-OVA IgG, individual mouse","OVA-specific IgG; intraperitoneally, 10 d",0 antibody units (3×) and 273 antibody units
same,"anti-OVA IgG, average","OVA-specific IgG; intraperitoneally, 15 d",0 antibody units
same,"anti-OVA IgG, increase from day 0","OVA-specific IgG; intraperitoneally, 15 d",0 antibody units
same,"anti-OVA IgG, individual mouse","OVA-specific IgG; intraperitoneally, 15 d",0 antibody units
same,"anti-OVA IgG, average","OVA-specific IgG; intraperitoneally, 27 d",51 antibody units
same,"anti-OVA IgG, increase from day 0","OVA-specific IgG; intraperitoneally, 27 d",38 antibody units
same,"anti-OVA IgG, individual mouse","OVA-specific IgG; intraperitoneally, 27 d",47 antibody units (2×) and 58 antibody units
same,"anti-OVA IgG, average","OVA-specific IgG; intraperitoneally, 31 d",19 antibody units
same,"anti-OVA IgG, increase from day 0","OVA-specific IgG; intraperitoneally, 31 d",6 antibody units
same,"anti-OVA IgG, individual mouse","OVA-specific IgG; intraperitoneally, 31 d",47 antibody units and 17 antibody units and 12 antibody units and 0 antibody units
same,"anti-OVA IgG, average","OVA-specific IgG; intraperitoneally, 36 d",42 antibody units
same,"anti-OVA IgG, increase from day 0","OVA-specific IgG; intraperitoneally, 36 d",29 antibody units
same,"anti-OVA IgG, individual mouse","OVA-specific IgG; intraperitoneally, 36 d",60 antibody units (2×) and 46 antibody units and 0 antibody units
20 μg SHAAYtide (SEQ ID NO: 6): 20 μg SHAAYtide without OVA (MLWRRKIGPQMTLSHAAY; SHAAGtide variant),"anti-OVA IgG, individual mouse",OVA-specific IgG; [1],31 antibody units and 47 antibody units and 139 antibody units and 64 antibody units
same,"anti-OVA IgG, average","OVA-specific IgG; intraperitoneally, 0 day",70 antibody units
same,"anti-OVA IgG, average","OVA-specific IgG; intraperitoneally, 10 d",158 antibody units
same,"anti-OVA IgG, increase from day 0","OVA-specific IgG; intraperitoneally, 10 d",88 antibody units
same,"anti-OVA IgG, individual mouse","OVA-specific IgG; intraperitoneally, 10 d",0 antibody units (2×) and 40 antibody units and 592 antibody units
same,"anti-OVA IgG, average","OVA-specific IgG; intraperitoneally, 15 d",42 antibody units
same,"anti-OVA IgG, increase from day 0","OVA-specific IgG; intraperitoneally, 15 d",0 antibody units
same,"anti-OVA IgG, individual mouse","OVA-specific IgG; intraperitoneally, 15 d",0 antibody units (3×) and 168 antibody units
same,"anti-OVA IgG, average","OVA-specific IgG; intraperitoneally, 27 d",112 antibody units
same,"anti-OVA IgG, increase from day 0","OVA-specific IgG; intraperitoneally, 27 d",41 antibody units
same,"anti-OVA IgG, individual mouse","OVA-specific IgG; intraperitoneally, 27 d",122 antibody units and 110 antibody units and 116 antibody units and 98 antibody units
same,"anti-OVA IgG, average","OVA-specific IgG; intraperitoneally, 31 d",40 antibody units
same,"anti-OVA IgG, increase from day 0","OVA-specific IgG; intraperitoneally, 31 d",0 antibody units
same,"anti-OVA IgG, individual mouse","OVA-specific IgG; intraperitoneally, 31 d",12 antibody units and 32 antibody units and 69 antibody units and 47 antibody units
same,"anti-OVA IgG, average","OVA-specific IgG; intraperitoneally, 36 d",0 antibody units
same,"anti-OVA IgG, increase from day 0","OVA-specific IgG; intraperitoneally, 36 d",0 antibody units
same,"anti-OVA IgG, individual mouse","OVA-specific IgG; intraperitoneally, 36 d",0 antibody units
MLWRRKIGPQMT [SEQ ID NO: 5],Designation and FPRL1 Activity,human FPRL1,Moderate
same,Notes: activity,human FPRL1,Moderate
IGPQMTLSHAAG [SEQ ID NO: 4],Designation and FPRL1 Activity,human FPRL1,Low
LWRRKIGPQMTLSH [SEQ ID NO: 11],Designation and FPRL1 Activity,human FPRL1,does not result in a complete loss in FRPL1 activity
same,Designation and FPRL1 Activity,human FPRL1; listed as CCXP11,Moderate
same,Notes: activity,human FPRL1,Moderate
"WRRKIG [SEQ ID NO: 10, Trp Arg Arg Lys Ile Gly]",Designation and FPRL1 Activity,human FPRL1,Low
WRRKIGPQMTLSHAAG [SEQ ID NO: 7],Designation and FPRL1 Activity,human FPRL1,Low
RRKIGPQMTLSHAAG [SEQ ID NO: 2],IC50,"human FPRL1; peak calcium flux, dose response, read-out: Induction of Calcium Flux in FPRL1 L1.2 Cells, IC 50",> 50 µM
